Measured values: patent US20240317749A1, “THERAPEUTIC COMPOUNDS” (priority 2021, published 2024)
Converted amounts (≈) assume the structure as drawn.

Legend:
[1] = test system: N. gonorrhoeae ATCC 49226; test: MIC assay for N. gonorrhoeae, broth microdilution in Todd-Hewitt (TH) broth; assay type: cell-based; details: Neisseria gonorrhoeae, ATCC49226; Antibacterial Activity against N. gonorrhoeae ATCC 49226 in TH
Description: MIC assays for N. gonorrhoeae were done using the ATCC 49226 strain. The procedure guidelines recommended by the Clinical and Laboratory Standards Institute (CLSI) for the broth microdilution MIC assay were modified by substituting […]. Also, the recommended bacterial inoculum was modified to meet the high inoculum demands needed for N. gonorrhoeae growth. A 96-well plate containing TH broth with 2-fold serial dilution of compounds was inoculated with log-phase bacterial at 2.5×10^7 CFU/mL. The final volume in each well was 200 μL. Each compound was tested in duplicate. The microtiter plates were incubated in an […] environment for 24 hours at 37° C. using the candle jar technique. Then the bacterial growth was tested by reading the plate with a SpectraMax iD5 plate reader (Molecular Devices, Inc.) at 600 nm. The MIC was defined as the lowest compound concentration that inhibited bacteria growth.

[2] = test system: P. aeruginosa ATCC 27853; test: MIC assay, CLSI broth microdilution in CAMH broth; assay type: cell-based, Pseudomonas aeruginosa; details: P. aeruginosa ATCC 278538
Experimental: (§1) MIC assays for various Gram-negative and Gram-positive strains were conducted in accordance with the CLSI guidelines for broth microdilution. A 96-well plate containing CAMH broth with 2-fold serial dilution of compounds was inoculated with log-phase bacterial at 5×10^5 CFU/mL. The final volume in each well was 100 μL. Each compound was tested in duplicate. The microtiter plates were incubated in an aerobic environment for 18 hours at 37° C. Then the bacterial growth was tested by reading the plate with a SpectraMax iD5 plate reader (Molecular Devices, Inc.) at 600 nm. The MIC was defined as the lowest compound concentration that inhibited bacteria growth.
(§2) The following Gram-negative and Gram-positive strains were used in the aerobic MIC procedure: • P. aeruginosa ATCC 27853 • A. baumannii ATCC 19606 • E. coli ATCC 25922 • E. coli W4573 • E. coli N43 • K. pneumoniae ATCC 10031 • K. pneumoniae ATCC 13883 • S. sonnei ATCC 29930 • P. mirabilis ATCC 29906 • Methicillin-susceptible S. aureus (MSSA) ATCC 19636 • Methicillin-resistant S. aureus (MRSA) ATCC 33951

[3] = test system: E. coli W4573; test: MIC assay, CLSI broth microdilution in CAMH broth; assay type: cell-based, Escherichia coli
Experimental: as §1, §2

[4] = test system: K. pneumoniae ATCC 10031; test: MIC assay, CLSI broth microdilution in CAMH broth; assay type: cell-based, Klebsiella pneumoniae; details: K. pneumonias ATCC 10031
Experimental: as §1, §2

[5] = test system: K. pneumoniae ATCC 13883; test: MIC assay, CLSI broth microdilution in CAMH broth; assay type: cell-based, Klebsiella pneumoniae; details: K. pneumonias ATCC 13883
Experimental: as §1, §2

[6] = test system: P. mirabilis ATCC 29906; test: MIC assay, CLSI broth microdilution in CAMH broth; assay type: cell-based, Proteus mirabilis
Experimental: as §1, §2

[7] = test system: Methicillin-susceptible S. aureus (MSSA) ATCC 19636; test: MIC assay, CLSI broth microdilution in CAMH broth; assay type: cell-based, Staphylococcus aureus
Experimental: as §1, §2

[8] = test system: Methicillin-resistant S. aureus (MRSA) ATCC 33591; test: MIC assay, CLSI broth microdilution in CAMH broth; assay type: cell-based, Staphylococcus aureus
Experimental: as §1, with “growth. […]” for “growth.”

[9] = test system: E. coli N43; test: MIC assay, CLSI broth microdilution in CAMH broth; assay type: cell-based, Escherichia coli
Experimental: as §1, §2

SMILES | MIC [1] [µg/mL] | Intrinsic MIC in CAMH [2] | Intrinsic MIC in CAMH [3] | Intrinsic MIC in CAMH [4] | Intrinsic MIC in CAMH [5] | Intrinsic MIC in CAMH [6] | Intrinsic MIC in CAMH [7] | Intrinsic MIC in CAMH [8] | Intrinsic MIC in CAMH [9]
Nc1nc(N)c2ccc3c(ccn3Cc3cc(Br)ccc3F)c2n1 [Example 34, 7-(5-bromo-2-fluorobenzyl)-7H-pyrrolo[2,3-h]quinazoline-2,4-diamine] | 16 (≈ 41.4 µM) | >64¤ | 2¤ | <0.125¤ | 64¤ | 64¤ | ≤0.063¤ | ≤0.063¤ | 
Nc1nc(N)c2ccc3c(ccn3Cc3ccc(Br)cc3Br)c2n1 [Example 35, 7-(2,4-dibromobenzyl)-7H-pyrrolo[2,3-h]quinazoline-2,4-diamine] | 4 (≈ 8.95 µM) | >64¤ | 8¤ | 0.25¤ | >64¤ | >64¤ | 0.5¤ | 1¤ | <0.125¤
Nc1nc(N)c2ccc3c(ccn3Cc3ccc(-c4ccccc4C(F)(F)F)cc3)c2n1 [Example 36, 7-((2′-(trifluoromethyl)-[1,1′-biphenyl]-4-yl)methyl)-7H-pyrrolo[2,3-h]quinazoline-2,4-diamine] | 8 (≈ 18.5 µM) | >64¤ | 8¤ | 1¤ | >64¤ | >64¤ | 0.5¤ | 0.5¤ | <0.125¤
N#Cc1cc(F)ccc1-c1ccc(Cn2ccc3c4nc(N)nc(N)c4ccc32)cc1 [Example 37, 4′-((2,4-diamino-7H-pyrrolo[2,3-h]quinazolin-7-yl)methyl)-4-fluoro-[1,1′-biphenyl]-2-carbonitrile] | 1 (≈ 2.45 µM) | >64¤ | 8¤ | 0.25¤ | >64¤ | >64¤ | 0.125¤ | 0.125¤ | <0.125¤
N#Cc1ccccc1-c1ccc(Cn2ccc3c4nc(N)nc(N)c4ccc32)cc1F [Example 38, 4′-((2,4-diamino-7H-pyrrolo[2,3-h]quinazolin-7-yl)methyl)-2′-fluoro-[1,1′-biphenyl]-2-carbonitrile] | 0.125 (≈ 0.306 µM) | >64¤ | 1¤ | <0.125¤ | 16¤ | >64¤ | ≤0.063¤ | ≤0.063¤ | 
N#Cc1ccccc1-c1ccc(Cn2ccc3c4nc(N)nc(N)c4ccc32)c(F)c1 [Example 39, 4′-((2,4-diamino-7H-pyrrolo[2,3-h]quinazolin-7-yl)methyl)-3′-fluoro-[1,1′-biphenyl]-2-carbonitrile] |  | >64¤ | 8¤ | 1¤ | >64¤ | >64¤ | ≤0.063¤ | ≤0.063¤ | ≤0.063¤
Nc1nc(N)c2ccc3c(ccn3CC#Cc3ccccc3)c2n1 [Example 41, 7-(3-phenylprop-2-yn-1-yl)-7H-pyrrolo[2,3-h]quinazoline-2,4-diamine] | 8 (≈ 25.5 µM) | >64¤ | 2¤ | <0.125¤ | 8¤ | >64¤ | 0.5¤ | 1¤ | 
C#Cc1ccc(Cn2ccc3c4nc(N)nc(N)c4ccc32)cc1 [Example 42, 7-(4-ethynylbenzyl)-7H-pyrrolo[2,3-h]quinazoline-2,4-diamine] | 8 (≈ 25.5 µM) | >64¤ | 4¤ | <0.125¤ | 32¤ | 32¤ | ≤0.063¤ | ≤0.063¤ | 
Nc1nc(N)c2ccc3c(ccn3Cc3ccc(C#Cc4ccccc4)cc3)c2n1 [Example 43, 7-(4-(phenylethynyl)benzyl)-7H-pyrrolo[2,3-h]quinazoline-2,4-diamine] | > 64 | >64¤ | >64¤ | >64¤ | >64¤ | >64¤ | 32¤ | 2¤ | 32¤
Nc1nc(N)c2ccc3c(ccn3Cc3cccc(C#Cc4ccccc4)c3)c2n1 [Example 44, 7-(3-(phenylethynyl)benzyl)-7H-pyrrolo[2,3-h]quinazoline-2,4-diamine] |  | >64¤ | >64¤ | 32¤ | >64¤ | >64¤ | 2¤ | 1¤ | 4¤
Nc1nc(N)c2ccc3c(ccn3Cc3cccc(C#Cc4ccccc4C(F)(F)F)c3)c2n1 [Example 45, 7-(3-((2-(trifluoromethyl)phenyl)ethynyl)benzyl)-7H-pyrrolo[2,3-h]quinazoline-2,4-diamine] |  | >64¤ | >64¤ | >64¤ | >64¤ | >64¤ | 2¤ | 2¤ | 32¤
N#Cc1ccccc1-c1ccc(Cn2ccc3c4nc(N)nc(N)c4cnc32)cc1 [Example 49, 4′-((2,4-diamino-7H-pyrrolo[3′,2′:5,6]pyrido[4,3-d]pyrimidin-7-yl)methyl)-[1,1′-biphenyl]-2-carbonitrile] |  | >64¤ | >64¤ | 0.5¤ | >64¤ | >64¤ | ≤0.063¤ | ≤0.063¤ | <0.125¤
Nc1nc(N)c2cnc3c(ccn3Cc3cccc(Br)c3)c2n1 [Example 50, 7-(3-bromobenzyl)-7H-pyrrolo[3′,2′:5,6]pyrido[4,3-d]pyrimidine-2,4-diamine] |  | >64¤ | 32¤ | 1¤ | >64¤ | >64¤ | ≤0.063¤ | ≤0.063¤ | ≤0.063¤
N#Cc1ccccc1-c1ccc(CNc2nc(N)c3cnc4c(ccn4Cc4ccc(-c5ccccc5C#N)c(F)c4)c3n2)cc1F [Example 52, 4′-((4-amino-2-(((2′-cyano-2-fluoro-[1,1′-biphenyl]-4-yl)methyl)amino)-7H-pyrrolo[3′,2′:5,6]pyrido[4,3-d]pyrimidin-7-yl)methyl)-2′-fluoro-[1,1′-biphenyl]-2-carbonitrile] |  |  |  |  |  | >64¤ | >64¤ | >64¤ | 
C#Cc1ccc(Cn2ccc3c4nc(N)nc(N)c4cnc32)cc1 [Example 53, 7-(4-ethynylbenzyl)-7H-pyrrolo[3′,2′:5,6]pyrido[4,3-d]pyrimidine-2,4-diamine] |  |  |  |  |  | >64¤ | ≤0.063¤ | ≤0.063¤ | 
